Data: the NIST ThermoML archive (doi:10.1016/j.jct.2016.09.010)

Assay: xn = mol fraction of the nth substance listed
Conditions: 100 kPa, Liquid; for speed of sound: Frequency=2 MHz, Linear variable-path acoustic interferometer; for mass density: Vibrating tube method

CCOC(=O)C(C)O (stereo not drawn) [DL-ethyl lactate] + Nc1ccccc1
Conditions | mass density, 303.15 K [kg/m3] | mass density, 308.15 K [kg/m3] | mass density, 313.15 K [kg/m3] | mass density, 318.15 K [kg/m3] | speed of sound, 303.15 K [m/s] | speed of sound, 308.15 K [m/s] | speed of sound, 313.15 K [m/s] | speed of sound, 318.15 K [m/s]
x1 = 0.0788 | 1014.12 | 1010.12 | 1005.75 | 1001.3 | 1588.7 | 1570.3 | 1550.3 | 1531.4
x1 = 0.1638 | 1015.39 | 1011.23 | 1006.72 | 1002.15 | 1560.8 | 1542.5 | 1522.7 | 1504
x1 = 0.2514 | 1016.56 | 1012.23 | 1007.57 | 1002.88 | 1531.4 | 1513.2 | 1493.5 | 1474.8
x1 = 0.3445 | 1017.64 | 1013.15 | 1008.36 | 1003.55 | 1499.5 | 1481.4 | 1461.8 | 1443.2
x1 = 0.4393 | 1018.65 | 1014 | 1009.09 | 1004.17 | 1466.5 | 1448.5 | 1429 | 1410.5
x1 = 0.5461 | 1019.69 | 1014.87 | 1009.83 | 1004.79 | 1428.6 | 1410.8 | 1391.4 | 1373.1
x1 = 0.6484 | 1020.59 | 1015.62 | 1010.46 | 1005.31 | 1391.7 | 1374.1 | 1354.9 | 1336.8
x1 = 0.7644 | 1021.47 | 1016.33 | 1011.05 | 1005.79 | 1349.3 | 1331.9 | 1312.9 | 1295
x1 = 0.8737 | 1022.17 | 1016.88 | 1011.49 | 1006.13 | 1308.3 | 1291.1 | 1272.3 | 1254.7
x1 = 1 | 1022.88 | 1017.39 | 1011.83 | 1006.31 | 1261.1 | 1243.8 | 1224.8 | 1206.9

CCNc1ccccc1 [N-ethylaminobenzene] + CCOC(=O)C(C)O
Conditions | mass density, 303.15 K [kg/m3] | mass density, 308.15 K [kg/m3] | mass density, 313.15 K [kg/m3] | mass density, 318.15 K [kg/m3] | speed of sound, 303.15 K [m/s] | speed of sound, 308.15 K [m/s] | speed of sound, 313.15 K [m/s] | speed of sound, 318.15 K [m/s]
x2 = 0 | 952.41 | 947.69 | 942.95 | 938.23 | 1497 | 1481 | 1464 | 1448
x2 = 0.1195 | 960.29 | 955.52 | 950.71 | 945.92 | 1471.1 | 1455.4 | 1438.5 | 1422.6
x2 = 0.2183 | 966.93 | 962.08 | 957.2 | 952.34 | 1449.5 | 1433.6 | 1416.6 | 1400.6
x2 = 0.3177 | 973.69 | 968.76 | 963.8 | 958.86 | 1427.2 | 1411.2 | 1394 | 1377.7
x2 = 0.424 | 981.03 | 976.02 | 970.97 | 965.95 | 1402.7 | 1386.6 | 1369.2 | 1352.7
x2 = 0.5225 | 987.95 | 982.86 | 977.73 | 972.63 | 1379.6 | 1363.4 | 1345.8 | 1329.1
x2 = 0.6209 | 994.95 | 989.79 | 984.58 | 979.4 | 1355.9 | 1339.6 | 1321.8 | 1305
x2 = 0.726 | 1002.55 | 997.31 | 992.01 | 986.75 | 1330 | 1313.6 | 1295.6 | 1278.6
x2 = 0.8128 | 1008.91 | 1003.61 | 998.24 | 992.91 | 1308.3 | 1291.7 | 1273.6 | 1256.4
x2 = 0.9074 | 1015.91 | 1010.52 | 1005.09 | 999.68 | 1284.5 | 1267.6 | 1249.2 | 1231.8

CNc1ccccc1 [N-methylaniline] + CCOC(=O)C(C)O
Conditions | mass density, 303.15 K [kg/m3] | mass density, 308.15 K [kg/m3] | mass density, 313.15 K [kg/m3] | mass density, 318.15 K [kg/m3] | speed of sound, 303.15 K [m/s] | speed of sound, 308.15 K [m/s] | speed of sound, 313.15 K [m/s] | speed of sound, 318.15 K [m/s]
x2 = 0 | 978.2 | 973.53 | 969.92 | 964.9 | 1547 | 1526.9 | 1511 | 1491.4
x2 = 0.1018 | 983.17 | 978.45 | 974.67 | 969.62 | 1520.1 | 1500.8 | 1485 | 1466.1
x2 = 0.1939 | 987.58 | 982.78 | 978.81 | 973.71 | 1495.5 | 1476.5 | 1460.5 | 1441.7
x2 = 0.2814 | 991.69 | 986.81 | 982.67 | 977.52 | 1471.8 | 1452.9 | 1436.6 | 1417.8
x2 = 0.3934 | 996.86 | 991.88 | 987.51 | 982.3 | 1440.7 | 1422.1 | 1405.4 | 1386.7
x2 = 0.491 | 1001.27 | 996.21 | 991.65 | 986.39 | 1413.1 | 1394.7 | 1377.7 | 1359.2
x2 = 0.5902 | 1005.66 | 1000.52 | 995.77 | 990.46 | 1384.5 | 1366.4 | 1349.1 | 1330.8
x2 = 0.6894 | 1009.96 | 1004.74 | 999.8 | 994.45 | 1355.5 | 1337.7 | 1320.1 | 1302
x2 = 0.7851 | 1014.03 | 1008.74 | 1003.62 | 998.22 | 1326.8 | 1309.5 | 1291.7 | 1273.8
x2 = 0.8937 | 1018.56 | 1013.19 | 1007.86 | 1002.41 | 1293.5 | 1276.4 | 1258.3 | 1240.7
